In ChEMBL document CHEMBL5500396, “Discovery, Multiparametric Optimization, and Solid-State Driven Identification of CHF-6550, a Novel Soft Dual Pharmacology Muscarinic Antagonist and β2 Agonist (MABA) for the Inhaled Treatment of Respiratory Diseases” (J Med Chem, 2024):
pKi: −log10 of the molar value.

System: not listed separately
Test: in vitro
Settings: rat, plasma
Description: Stability in rat plasma assessed as half-life at 5 uM incubated for 120 mins by LC-MS/MS analysis

Compared with `O=C(NCCCOc1cccc([C@](O)(C(=O)O[C@@H]2CCCN(Cc3ccccc3)C2)c2ccccc2)c1)c1ccc(CNC[C@H](O)c2ccc(O)c3[nH]c(=O)ccc23)cc1.O=CO`, `O=C(NCCCOc1cccc([C@](O)(C(=O)OC2CCN(Cc3ccccc3)CC2)c2ccccc2)c1)c1ccc(CNC[C@H](O)c2ccc(O)c3[nH]c(=O)ccc23)cc1` is 27-fold higher in half-life at 2 h, 5 µM: 5 min for the first, 135 min for the second.

Going from `CN1CCC[C@@H](OC(=O)[C@](O)(c2ccccc2)c2cccc(OCCCNC(=O)c3ccc(CNC[C@H](O)c4ccc(O)c5[nH]c(=O)ccc45)c(F)c3)c2)C1.O=CO` to `O=C(NCCCOc1cccc([C@](O)(C(=O)OC[C@H]2CCN(Cc3ccccc3)C2)c2ccccc2)c1)c1ccc(CNC[C@H](O)c2ccc(O)c3[nH]c(=O)ccc23)cc1`, the half-life at 2 h, 5 µM rises from 15 min to 32 min (2.1-fold).

System: not listed separately
Test: in vitro
Settings: rat, hepatocytes
Description: Metabolic stability in rat hepatocytes assessed as clearance measured per 10^6 cells at 1 uM incubated for 90 mins by LC-MS/MS analysis

`O=C(NCCCOc1cccc([C@](O)(C(=O)O[C@@H]2CCCN(Cc3ccccc3)C2)c2ccccc2)c1)c1ccc(CNC[C@H](O)c2ccc(O)c3[nH]c(=O)ccc23)cc1.O=CO` and `O=C(NCCCOc1cccc([C@](O)(C(=O)OC2CCN(Cc3ccccc3)CC2)c2ccccc2)c1)c1ccc(CNC[C@H](O)c2ccc(O)c3[nH]c(=O)ccc23)cc1` are within 1.5-fold of each other in hepatocyte CLint at 1.5 h, 1 µM: 78 µL/min/1e6 cells for the first, 64 µL/min/1e6 cells for the second.

`CN1CCC[C@@H](OC(=O)[C@](O)(c2ccccc2)c2cccc(OCCCNC(=O)c3ccc(CNC[C@H](O)c4ccc(O)c5[nH]c(=O)ccc45)c(F)c3)c2)C1.O=CO` and `O=C(NCCCOc1cccc([C@](O)(C(=O)OC[C@H]2CCN(Cc3ccccc3)C2)c2ccccc2)c1)c1ccc(CNC[C@H](O)c2ccc(O)c3[nH]c(=O)ccc23)cc1` are within 1.5-fold of each other in hepatocyte CLint at 1.5 h, 1 µM: 54 µL/min/1e6 cells for the first, 38 µL/min/1e6 cells for the second.

Biological target: Beta-2 adrenergic receptor (Homo sapiens, UniProt P07550)
Test: not given
Settings: not given

Sequence of Beta-2 adrenergic receptor (P07550 whole entry): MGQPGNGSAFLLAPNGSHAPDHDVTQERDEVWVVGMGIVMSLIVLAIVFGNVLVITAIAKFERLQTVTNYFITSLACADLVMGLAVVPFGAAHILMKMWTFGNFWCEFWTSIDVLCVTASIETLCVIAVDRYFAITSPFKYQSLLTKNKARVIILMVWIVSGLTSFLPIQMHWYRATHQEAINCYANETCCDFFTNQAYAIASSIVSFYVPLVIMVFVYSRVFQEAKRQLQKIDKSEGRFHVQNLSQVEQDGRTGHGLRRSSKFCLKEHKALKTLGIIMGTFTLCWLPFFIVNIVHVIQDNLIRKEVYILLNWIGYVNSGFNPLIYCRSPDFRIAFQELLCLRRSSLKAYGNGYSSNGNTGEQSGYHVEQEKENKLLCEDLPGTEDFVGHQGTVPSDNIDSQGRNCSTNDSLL

Compared with `O=C(c1ccc(OCc2ccc(CNC[C@H](O)c3ccc(O)c4[nH]c(=O)ccc34)cc2)cc1)N1CC(C(=O)OCC2CCN(Cc3ccccc3)CC2)(c2ccccc2)C1`, `O=C(NCCCOc1cccc([C@](O)(C(=O)OC2CCN(Cc3ccccc3)CC2)c2ccccc2)c1)c1ccc(CNC[C@H](O)c2ccc(O)c3[nH]c(=O)ccc23)cc1` is 0.70 log units higher in pKi: 9.60 for the first, 10.30 for the second.

Compared with `O=C(NCCCCNC[C@H](O)c1ccc(O)c2[nH]c(=O)ccc12)c1ccc(C(=O)N2CCC(C(=O)O[C@H]3CN4CCC3CC4)(c3ccccc3)CC2)cc1`, `O=C(NCCCCNC[C@H](O)c1ccc(O)c2[nH]c(=O)ccc12)c1ccc(C(=O)NC2(C(=O)O[C@H]3CN4CCC3CC4)CCc3ccccc32)cc1` (single isomer, unassigned) is 0.20 log units higher in pKi: 9.20 for the first, 9.40 for the second.

Compared with `O=C(NCCCCNC[C@H](O)c1ccc(O)c2[nH]c(=O)ccc12)c1cccc(C(=O)NC2(C(=O)O[C@H]3CN4CCC3CC4)CCc3ccccc32)c1` (single isomer, unassigned), `CN1CCC[C@@H](OC(=O)[C@](O)(c2ccccc2)c2cccc(OCCCNC(=O)c3ccc(CNC[C@H](O)c4ccc(O)c5[nH]c(=O)ccc45)c(F)c3)c2)C1.O=CO` is 2.10 log units higher in pKi: 8.80 for the first, 10.90 for the second. The second binds more tightly here.

Going from `O=C(NCCCOc1cccc([C@](O)(C(=O)O[C@@H]2CCCN(Cc3ccccc3)C2)c2ccccc2)c1)c1ccc(CNC[C@H](O)c2ccc(O)c3[nH]c(=O)ccc23)cc1.O=CO` to `O=C(NCCCOc1cccc([C@](O)(C(=O)OC[C@H]2CCN(Cc3ccccc3)C2)c2ccccc2)c1)c1ccc(CNC[C@H](O)c2ccc(O)c3[nH]c(=O)ccc23)cc1`, the pKi rises from 9.50 to 9.90 (0.40 log units).

System: not listed separately
Test: in vitro
Settings: guinea pig, plasma
Description: Stability in guinea pig plasma assessed as half-life at 5 uM incubated for 120 mins by LC-MS/MS analysis

Compared with `O=C(NCCCOc1cccc([C@](O)(C(=O)O[C@@H]2CCCN(Cc3ccccc3)C2)c2ccccc2)c1)c1ccc(CNC[C@H](O)c2ccc(O)c3[nH]c(=O)ccc23)cc1.O=CO`, `O=C(NCCCOc1cccc([C@](O)(C(=O)OC2CCN(Cc3ccccc3)CC2)c2ccccc2)c1)c1ccc(CNC[C@H](O)c2ccc(O)c3[nH]c(=O)ccc23)cc1` is lower in half-life at 2 h, 5 µM: over 150 min for the first, 8 min for the second.

First: CN1CCC[C@@H](OC(=O)[C@](O)(c2ccccc2)c2cccc(OCCCNC(=O)c3ccc(CNC[C@H](O)c4ccc(O)c5[nH]c(=O)ccc45)c(F)c3)c2)C1.O=CO
Second: O=C(NCCCOc1cccc([C@](O)(C(=O)OC[C@H]2CCN(Cc3ccccc3)C2)c2ccccc2)c1)c1ccc(CNC[C@H](O)c2ccc(O)c3[nH]c(=O)ccc23)cc1
The half-life at 2 h, 5 µM of the first is 1.5-fold higher: 84 min for the first, 56 min for the second.

System: not listed separately
Test: in vitro
Settings: human, hepatocytes
Description: Metabolic stability in human hepatocytes assessed as clearance measured per 10^6 cells at 1 uM incubated for 90 mins by LC-MS/MS analysis

Compared with `O=C(NCCCOc1cccc([C@](O)(C(=O)O[C@@H]2CCCN(Cc3ccccc3)C2)c2ccccc2)c1)c1ccc(CNC[C@H](O)c2ccc(O)c3[nH]c(=O)ccc23)cc1.O=CO`, `O=C(NCCCOc1cccc([C@](O)(C(=O)OC2CCN(Cc3ccccc3)CC2)c2ccccc2)c1)c1ccc(CNC[C@H](O)c2ccc(O)c3[nH]c(=O)ccc23)cc1` is 1.7-fold lower in hepatocyte CLint at 1.5 h, 1 µM: 20 µL/min/1e6 cells for the first, 12 µL/min/1e6 cells for the second.

`CN1CCC[C@@H](OC(=O)[C@](O)(c2ccccc2)c2cccc(OCCCNC(=O)c3ccc(CNC[C@H](O)c4ccc(O)c5[nH]c(=O)ccc45)c(F)c3)c2)C1.O=CO` and `O=C(NCCCOc1cccc([C@](O)(C(=O)OC[C@H]2CCN(Cc3ccccc3)C2)c2ccccc2)c1)c1ccc(CNC[C@H](O)c2ccc(O)c3[nH]c(=O)ccc23)cc1` are within 1.5-fold of each other in hepatocyte CLint at 1.5 h, 1 µM: 6 µL/min/1e6 cells for the first, 7 µL/min/1e6 cells for the second.

Biological target: Muscarinic acetylcholine receptor M3 (Homo sapiens, UniProt P20309)
Test: not given
Settings: not given

Sequence of Muscarinic acetylcholine receptor M3 (P20309 whole entry): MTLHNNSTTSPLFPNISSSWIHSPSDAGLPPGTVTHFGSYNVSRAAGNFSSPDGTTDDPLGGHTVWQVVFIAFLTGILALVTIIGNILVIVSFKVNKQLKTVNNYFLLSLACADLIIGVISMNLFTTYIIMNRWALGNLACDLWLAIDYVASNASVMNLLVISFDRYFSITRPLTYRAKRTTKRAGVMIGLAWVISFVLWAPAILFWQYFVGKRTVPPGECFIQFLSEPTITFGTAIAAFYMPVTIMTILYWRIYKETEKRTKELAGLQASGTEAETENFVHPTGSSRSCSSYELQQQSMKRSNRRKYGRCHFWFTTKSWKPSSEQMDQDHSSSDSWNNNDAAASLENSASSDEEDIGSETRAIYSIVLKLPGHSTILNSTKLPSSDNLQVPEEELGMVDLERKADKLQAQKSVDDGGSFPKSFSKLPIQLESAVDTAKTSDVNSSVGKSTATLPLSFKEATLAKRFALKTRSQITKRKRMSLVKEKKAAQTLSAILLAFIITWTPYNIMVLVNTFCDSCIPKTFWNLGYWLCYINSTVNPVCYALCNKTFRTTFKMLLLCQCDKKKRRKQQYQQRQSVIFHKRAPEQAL

Going from `O=C(c1ccc(OCc2ccc(CNC[C@H](O)c3ccc(O)c4[nH]c(=O)ccc34)cc2)cc1)N1CC(C(=O)OCC2CCN(Cc3ccccc3)CC2)(c2ccccc2)C1` to `O=C(NCCCCNC[C@H](O)c1ccc(O)c2[nH]c(=O)ccc12)c1ccc(C(=O)N2CCC(C(=O)O[C@H]3CN4CCC3CC4)(c3ccccc3)CC2)cc1`, the pKi rises from 8.10 to 8.80 (0.70 log units).

Going from `O=C(NCCCCNC[C@H](O)c1ccc(O)c2[nH]c(=O)ccc12)c1cccc(C(=O)NC2(C(=O)O[C@H]3CN4CCC3CC4)CCc3ccccc32)c1` (single isomer, unassigned) to `O=C(NCCCCNC[C@H](O)c1ccc(O)c2[nH]c(=O)ccc12)c1ccc(C(=O)NC2(C(=O)O[C@H]3CN4CCC3CC4)CCc3ccccc32)cc1` (single isomer, unassigned), the pKi falls from 7.90 to under 7.30. The first binds more tightly here.

System: not listed separately
Test: in vitro
Settings: human, plasma
Description: Stability in human plasma assessed as half-life at 5 uM incubated for 120 mins by LC-MS/MS analysis

`O=C(NCCCOc1cccc([C@](O)(C(=O)O[C@@H]2CCCN(Cc3ccccc3)C2)c2ccccc2)c1)c1ccc(CNC[C@H](O)c2ccc(O)c3[nH]c(=O)ccc23)cc1.O=CO` and `O=C(NCCCOc1cccc([C@](O)(C(=O)OC2CCN(Cc3ccccc3)CC2)c2ccccc2)c1)c1ccc(CNC[C@H](O)c2ccc(O)c3[nH]c(=O)ccc23)cc1` cannot be ordered by half-life at 2 h, 5 µM: over 150 min for the first, over 150 min for the second.

`CN1CCC[C@@H](OC(=O)[C@](O)(c2ccccc2)c2cccc(OCCCNC(=O)c3ccc(CNC[C@H](O)c4ccc(O)c5[nH]c(=O)ccc45)c(F)c3)c2)C1.O=CO` and `O=C(NCCCOc1cccc([C@](O)(C(=O)OC[C@H]2CCN(Cc3ccccc3)C2)c2ccccc2)c1)c1ccc(CNC[C@H](O)c2ccc(O)c3[nH]c(=O)ccc23)cc1` cannot be ordered by half-life at 2 h, 5 µM: over 150 min for the first, over 128 min for the second.
